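How tested: cells in 96-well plates exposed to compound for 48 hours at five concentrations. Abbreviation: GI50, concentration required for 50% inhibition of growth. TGI is the concentration that stops growth completely.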
Tested on: SN12C renal
Test: NCI tumour cell line growth inhibition, 48 h

Row | SMILES | TGI | GI50
1 | CN1CCN(C)C1c1cccc(C2N(C)CCN2C)c1 | > 100 µM | 
2 | CC(=O)OCCOCBr | > 100 µM | 
3 | O=C1c2ccccc2-c2c1c1ccccc1c(=O)n2CCNCCCNCCn1c2c(c3ccccc3c1=O)C(=O)c1ccccc1-2 | 0.436 µM | 11 nM
4 | CC(O)CN1C(=O)NC(Cc2ccccc2)C1=O (centres undefined) | > 100 µM | 
5 | O=C(c1ccccc1)[C@H]1Nc2cnccc2C2c3ccccc3CC21 (some centres undefined) | 31.8 µM | 
6 | CN(C)c1nc(-c2cccs2)n2nc(-c3ccc(Cl)cc3)cc2n1 | > 100 µM | > 100000 nM
7 | COc1cc(/C=C2\CC3C4CC=C5CC(N6CCCC6)CC[C@]5(C)C4CC[C@]3(C)C2OC(C)=O)ccc1OCCN1CCCC1 (some centres undefined) | 15.7 µM | 4010 nM
8 | COc1ccc(C(=O)C(C(=O)CCC(=O)Nc2cccc(C(F)(F)F)c2)c2ccccc2)cc1 (centres undefined) | > 100 µM | 
9 | NC1=NC(=O)C(CC(=O)Nc2ccc([N+](=O)[O-])cc2[N+](=O)[O-])S1 (centres undefined) | > 100 µM | 
10 | O=C1c2ccccc2-c2cccc3ccc(Cc4ccccc4)c1c23 | > 100 µM | 
11 | COC(=O)/C(=N\NC(=S)NN)C(C(=O)C(=O)Nc1ccccc1C(N)=O)c1nc2ccccc2[nH]c1=O (centres undefined) | > 100 µM | 
12 | CC/C=C\C/C=C\C1CC(=O)NCCCNCCCCN1 (centres undefined) | > 100 µM | 
13 | CC1CCCC(C(=O)/C(=C/c2cccc(Cl)c2)C(=O)C(=O)O)C1 (centres undefined) | > 100 µM | 
14 | CC(=O)c1c(C)n([O-])c2cc(C)c(C)cc2[n+]1=O | > 100 µM | 
15 | N#CC(C#N)=Cc1cccc(Oc2ccccc2)c1 | 48.9 µM | 
16 | Cc1ncc([N+](=O)[O-])n1CCNC(=O)CCCCn1ccnc1[N+](=O)[O-] | > 100 µM | 
17 | COc1ccc(/C=C/C(=O)c2sc(-n3nc(-c4ccccc4)cc3-c3ccccc3)nc2C)cc1OC | > 100 µM | 
18 | NC(CCSCC(F)F)C(=O)O (centres undefined) | > 100 µM | 
19 | CC1(C)OC(=O)C=C([O-])O1.CC1(C)OC(=O)C=C([O-])O1.O=c1c(O)c(-c2ccc([O-])cc2[O-])oc2cc(O)cc(O)c12.[Ti+4] | > 100 µM | 
20 | Nc1ccc(SC23CC4CC(CC(C4)C2)C3)cc1 | > 100 µM | 
21 | CCOC(=O)[C@@H](C)C[C@H](Cc1ccccc1)NC(=O)c1csc([C@@H](C[C@H](C(C)C)N(C)C(=O)[C@@H](NC(=O)[C@H]2CCCCN2C)C(C)(C)C)OC(C)=O)n1 | > 16.7 µM | 3.07 nM

Tested on: M14 melanoma
Test: NCI tumour cell line growth inhibition, 48 h

Row | SMILES | TGI | GI50
22 | CN(C)C(=S)/N=c1\ss/c(=N\S(=O)(=O)c2ccccc2)n1-c1ccccc1 | > 100 µM | 
23 | N#Cc1c(N)c(C(=O)O)nn(-c2cccc(C(F)(F)F)c2)c1=O | > 100 µM | 
24 | CCOC(=O)Cc1nc(/C(C#N)=C/c2ccco2)[nH]c(=O)c1C#N | > 100 µM | 
25 | CC1=Nc2c(ccc3c2C(=O)c2ccccc2C3=O)NC(c2ccncc2)C1 (centres undefined) | > 100 µM | > 100000 nM
26 | Cc1ccc(C(=O)CC(Sc2cccc(Cl)c2Cl)c2ccc(Cl)cc2)cc1C (centres undefined) | 65.1 µM | 26700 nM
27 | COc1cc(/C=C\c2ccc(O)cc2)cc(OC)c1OC | > 100 µM | 
28 | Cc1ccc2/c(=C/c3ccc(N(C)C)cc3)c3cc(-c4ccccc4)[n+](C)n3c2c1 | 2.54 µM | 59.1 nM
29 | C=C(COC(C)=O)CC(/C=C(\C)CCC=C(C)C)OC(C)=O (centres undefined) | > 100 µM | 
30 | CNC(=O)c1cn(C[C@H](F)CCc2ccc(NC(=O)Cc3cc(OC4CC(F)(F)C4)cc(C)n3)nn2)nn1 | > 100 µM | > 100000 nM
31 | COC(=O)C(Cc1ccccc1)N/C=C\C(=O)c1ccc(Cl)cc1 (centres undefined) | 44.7 µM | 19100 nM
32 | CC1(C)CCc2cc3c(cc2O1)OCCC3=O | > 100 µM | 
33 | Oc1c2c(c(O)c3ccccc13)=N[C@@H](c1ccccc1)[C@H](c1ccccc1)N=2 | > 100 µM | 
34 | c1cc[c]([Sn]([S]c2cccc3cccnc23)([c]2ccccc2)[c]2ccccc2)cc1 | 0.0624 µM | 22.2 nM
35 | O=C1CCn2c([nH]c3cccc4cccc2c43)=N1 | > 100 µM | 
36 | CCOc1cccc2nc3cccc(C(=O)NCCN(C)C)c3nc12 | 6.04 µM | 
37 | Cc1cc(C)nc(NS(=O)(=O)c2ccc(Nc3c4ccccc4nc4c(C(=O)N5CCN(CCOS(C)(=O)=O)CC5)ccc(Cl)c34)cc2)n1 | > 100 µM | 
38 | Clc1cc(Cl)c2c(Cl)cc(Cl)c3c2c1N=S=N3 | > 100 µM | 
39 | CN1CCN(C)C1c1cccc(C2N(C)CCN2C)c1 | > 100 µM | 
40 | CC(=O)OCCOCBr | > 100 µM | 

Row | SMILES | TGI | GI50
41 | O=C1c2ccccc2-c2c1c1ccccc1c(=O)n2CCNCCCNCCn1c2c(c3ccccc3c1=O)C(=O)c1ccccc1-2 | 0.536 µM | 257 nM
42 | CC(O)CN1C(=O)NC(Cc2ccccc2)C1=O (centres undefined) | > 100 µM | 
43 | O=C(c1ccccc1)[C@H]1Nc2cnccc2C2c3ccccc3CC21 (some centres undefined) | 19.9 µM | 
44 | COc1cc(/C=C2\CC3C4CC=C5CC(N6CCCC6)CC[C@]5(C)C4CC[C@]3(C)C2OC(C)=O)ccc1OCCN1CCCC1 (some centres undefined) | 3.41 µM | 1890 nM
45 | COc1ccc(C(=O)C(C(=O)CCC(=O)Nc2cccc(C(F)(F)F)c2)c2ccccc2)cc1 (centres undefined) | > 100 µM | 
46 | NC1=NC(=O)C(CC(=O)Nc2ccc([N+](=O)[O-])cc2[N+](=O)[O-])S1 (centres undefined) | > 100 µM | 
47 | O=C1c2ccccc2-c2cccc3ccc(Cc4ccccc4)c1c23 | > 100 µM | 
48 | COC(=O)/C(=N\NC(=S)NN)C(C(=O)C(=O)Nc1ccccc1C(N)=O)c1nc2ccccc2[nH]c1=O (centres undefined) | > 100 µM | 
49 | CC/C=C\C/C=C\C1CC(=O)NCCCNCCCCN1 (centres undefined) | > 100 µM | 
50 | CC1CCCC(C(=O)/C(=C/c2cccc(Cl)c2)C(=O)C(=O)O)C1 (centres undefined) | 68.5 µM | 
51 | CC(=O)c1c(C)n([O-])c2cc(C)c(C)cc2[n+]1=O | > 100 µM | 
52 | N#CC(C#N)=Cc1cccc(Oc2ccccc2)c1 | 40.4 µM | 
53 | Cc1ncc([N+](=O)[O-])n1CCNC(=O)CCCCn1ccnc1[N+](=O)[O-] | > 100 µM | 
54 | COc1ccc(/C=C/C(=O)c2sc(-n3nc(-c4ccccc4)cc3-c3ccccc3)nc2C)cc1OC | > 100 µM | 
55 | NC(CCSCC(F)F)C(=O)O (centres undefined) | > 100 µM | 
56 | COC(=O)NC/C=C\c1nc(CC/C=C\C(=O)OC2CC3CC(=O)O[C@@H](/C=C/CC(C)C)C[C@@H]4CCC(C)C(C[C@@H](OC)CC(C2)O3)O4)co1 (some centres undefined) | > 100 µM | 7360 nM
57 | CC1(C)OC(=O)C=C([O-])O1.CC1(C)OC(=O)C=C([O-])O1.O=c1c(O)c(-c2ccc([O-])cc2[O-])oc2cc(O)cc(O)c12.[Ti+4] | > 100 µM | 
58 | Nc1ccc(SC23CC4CC(CC(C4)C2)C3)cc1 | > 100 µM | 
59 | CCOC(=O)[C@@H](C)C[C@H](Cc1ccccc1)NC(=O)c1csc([C@@H](C[C@H](C(C)C)N(C)C(=O)[C@@H](NC(=O)[C@H]2CCCCN2C)C(C)(C)C)OC(C)=O)n1 | 0.0294 µM | < 1.67 nM

Tested on: EKVX NSCLC
Test: NCI tumour cell line growth inhibition, 48 h

Row | SMILES | TGI | GI50
60 | CN(C)C(=S)/N=c1\ss/c(=N\S(=O)(=O)c2ccccc2)n1-c1ccccc1 | > 100 µM | 
61 | N#Cc1c(N)c(C(=O)O)nn(-c2cccc(C(F)(F)F)c2)c1=O | > 100 µM | 
62 | CCOC(=O)Cc1nc(/C(C#N)=C/c2ccco2)[nH]c(=O)c1C#N | > 100 µM | 
63 | CC1=Nc2c(ccc3c2C(=O)c2ccccc2C3=O)NC(c2ccncc2)C1 (centres undefined) | > 100 µM | > 100 µM
64 | Cc1ccc(C(=O)CC(Sc2cccc(Cl)c2Cl)c2ccc(Cl)cc2)cc1C (centres undefined) | 42.1 µM | 21.6 µM
65 | COc1cc(/C=C\c2ccc(O)cc2)cc(OC)c1OC | > 100 µM | 
66 | Cc1ccc2/c(=C/c3ccc(N(C)C)cc3)c3cc(-c4ccccc4)[n+](C)n3c2c1 | 7.95 µM | 0.0643 µM
67 | C=C(COC(C)=O)CC(/C=C(\C)CCC=C(C)C)OC(C)=O (centres undefined) | > 100 µM | 
68 | CNC(=O)c1cn(C[C@H](F)CCc2ccc(NC(=O)Cc3cc(OC4CC(F)(F)C4)cc(C)n3)nn2)nn1 | > 100 µM | > 100 µM
69 | CC1(C)CCc2cc3c(cc2O1)OCCC3=O | > 100 µM | 
70 | c1cc[c]([Sn]([S]c2cccc3cccnc23)([c]2ccccc2)[c]2ccccc2)cc1 | 0.37 µM | 0.0558 µM
71 | O=C1CCn2c([nH]c3cccc4cccc2c43)=N1 | > 100 µM | 
72 | CCOc1cccc2nc3cccc(C(=O)NCCN(C)C)c3nc12 | 11.6 µM | 
73 | Clc1cc(Cl)c2c(Cl)cc(Cl)c3c2c1N=S=N3 | > 100 µM | 
74 | CC(=O)OCCOCBr | > 100 µM | 
75 | O=C1c2ccccc2-c2c1c1ccccc1c(=O)n2CCNCCCNCCn1c2c(c3ccccc3c1=O)C(=O)c1ccccc1-2 | 3.07 µM | 1.07 µM
76 | CC(O)CN1C(=O)NC(Cc2ccccc2)C1=O (centres undefined) | > 100 µM | 
77 | O=C(c1ccccc1)[C@H]1Nc2cnccc2C2c3ccccc3CC21 (some centres undefined) | 71 µM | 
78 | CN(C)c1nc(-c2cccs2)n2nc(-c3ccc(Cl)cc3)cc2n1 | > 100 µM | 4.38 µM
79 | COc1cc(/C=C2\CC3C4CC=C5CC(N6CCCC6)CC[C@]5(C)C4CC[C@]3(C)C2OC(C)=O)ccc1OCCN1CCCC1 (some centres undefined) | 13.4 µM | 3.41 µM
80 | COc1ccc(C(=O)C(C(=O)CCC(=O)Nc2cccc(C(F)(F)F)c2)c2ccccc2)cc1 (centres undefined) | > 100 µM | 
81 | NC1=NC(=O)C(CC(=O)Nc2ccc([N+](=O)[O-])cc2[N+](=O)[O-])S1 (centres undefined) | > 100 µM | 
82 | O=C1c2ccccc2-c2cccc3ccc(Cc4ccccc4)c1c23 | > 100 µM | 

Source: PubChem BioAssay (NCI)
